Test results from ChEMBL document CHEMBL3046635, “Synthesis and Herbicidal Activity of New Pyrazole-4-carboxamide Derivatives” (J Pestic Sci, 2004).
Calls of active or inactive are those of the source. Unless noted, the calls are words filed in the database; no cut-off is given here.

Test system: Oryza sativa
Experiment: Phytotoxicity against Oryza sativa cv. Koshihikari (rice) at 100 g a.i/ha measured after 14 days
Type: organism-based
Conditions: in vivo, 336 h

Compound	Activity
Cn1cc(C(=O)Nc2ccc(F)cc2F)c(OCc2cccc(C(F)(F)F)c2)n1	Non-toxic

Test system: Pontederia vaginalis
Experiment: Pre-emergence herbicidal activity against Monochoria vaginalis at 500 g a.i/ha measured after 14 days
Type: functional, organism-based
Conditions: not given

Compound	Activity
Cn1cc(C(=O)Nc2ccc(F)cc2F)c(OCc2cccc(C(F)(F)F)c2)n1	Active

Test system: Schoenoplectiella juncoides
Experiment: Post-emergence herbicidal activity against Schoenoplectiella juncoides assessed as bleaching of stem/leaf parts; further: test concentration or dose not given here
Type: functional, organism-based
Conditions: not given

Compound	Activity
Cn1cc(C(=O)Nc2ccc(F)cc2F)c(OCc2cccc(C(F)(F)F)c2)n1	Active

Test system: Ammannia multiflora
Experiment: Pre-emergence herbicidal activity against Ammannia multiflora at 500 g a.i/ha measured after 14 days
Type: functional, organism-based
Conditions: not given

Compound	Activity
Cn1cc(C(=O)Nc2ccc(F)cc2F)c(OCc2cccc(C(F)(F)F)c2)n1	Active

Test system: Rotala indica
Experiment: Pre-emergence herbicidal activity against Rotala indica at 100 g a.i/ha measured after 14 days
Type: functional, organism-based
Conditions: not given

Compound	Activity
Cn1cc(C(=O)Nc2ccc(F)cc2F)c(OCc2cccc(C(F)(F)F)c2)n1	Active

Test system: Ammannia multiflora
Experiment: Pre-emergence herbicidal activity against Ammannia multiflora assessed as bleaching of stem/leaf parts
Type: functional, organism-based
Conditions: not given

Compound	Activity
Cn1cc(C(=O)Nc2ccc(F)cc2F)c(OCc2cccc(C(F)(F)F)c2)n1	Active

Test system: Pontederia vaginalis
Experiment: Post-emergence herbicidal activity against Monochoria vaginalis assessed as bleaching of stem/leaf parts; further: test concentration or dose not given here
Type: functional, organism-based
Conditions: not given

Compound	Activity
Cn1cc(C(=O)Nc2ccc(F)cc2F)c(OCc2cccc(C(F)(F)F)c2)n1	Active

Test system: Rotala indica
Experiment: Pre-emergence herbicidal activity against Rotala indica assessed as bleaching of stem/leaf parts
Type: functional, organism-based
Conditions: not given

Compound	Activity
Cn1cc(C(=O)Nc2ccc(F)cc2F)c(OCc2cccc(C(F)(F)F)c2)n1	Active

Test system: Lindernia procumbens
Experiment: Post-emergence herbicidal activity against Lindernia procumbens assessed as bleaching of stem/leaf parts; further: test concentration or dose not given here
Type: functional, organism-based
Conditions: not given

Compound	Activity
Cn1cc(C(=O)Nc2ccc(F)cc2F)c(OCc2cccc(C(F)(F)F)c2)n1	Active

Test system: Echinochloa oryzicola
Experiment: Post-emergence herbicidal activity against Echinochloa oryzicola assessed as bleaching of stem/leaf parts; further: test concentration or dose not given here
Type: functional, organism-based
Conditions: not given

Compound	Activity
Cn1cc(C(=O)Nc2ccc(F)cc2F)c(OCc2cccc(C(F)(F)F)c2)n1	Active

Test system: Eleocharis acicularis
Experiment: Post-emergence herbicidal activity against Eleocharis acicularis assessed as bleaching of stem/leaf parts; further: test concentration or dose not given here
Type: functional, organism-based
Conditions: not given

Compound	Activity
Cn1cc(C(=O)Nc2ccc(F)cc2F)c(OCc2cccc(C(F)(F)F)c2)n1	Active

Test system: Rotala indica
Experiment: Pre-emergence herbicidal activity against Rotala indica at 500 g a.i/ha measured after 14 days
Type: functional, organism-based
Conditions: not given

Compound	Activity
Cn1cc(C(=O)Nc2ccc(F)cc2F)c(OCc2cccc(C(F)(F)F)c2)n1	Active

Test system: Ammannia multiflora
Experiment: Post-emergence herbicidal activity against Ammannia multiflora assessed as bleaching of stem/leaf parts; further: test concentration or dose not given here
Type: functional, organism-based
Conditions: not given

Compound	Activity
Cn1cc(C(=O)Nc2ccc(F)cc2F)c(OCc2cccc(C(F)(F)F)c2)n1	Active

Test system: Pontederia vaginalis
Experiment: Pre-emergence herbicidal activity against Monochoria vaginalis at 100 g a.i/ha measured after 14 days
Type: functional, organism-based
Conditions: not given

Compound	Activity
Cn1cc(C(=O)Nc2ccc(F)cc2F)c(OCc2cccc(C(F)(F)F)c2)n1	Active

Test system: Elatine triandra
Experiment: Post-emergence herbicidal activity against Elatine triandra assessed as bleaching of stem/leaf parts; further: test concentration or dose not given here
Type: functional, organism-based
Conditions: not given

Compound	Activity
Cn1cc(C(=O)Nc2ccc(F)cc2F)c(OCc2cccc(C(F)(F)F)c2)n1	Active

Test system: Cyperus difformis
Experiment: Pre-emergence herbicidal activity against Cyperus difformis at 100 g a.i/ha measured after 14 days
Type: functional, organism-based
Conditions: not given

Compound	Activity
Cn1cc(C(=O)Nc2ccc(F)cc2F)c(OCc2cccc(C(F)(F)F)c2)n1	Active

Test system: Echinochloa oryzicola
Experiment: Pre-emergence herbicidal activity against Echinochloa oryzicola at 100 g a.i/ha measured after 14 days
Type: functional, organism-based
Conditions: not given

Compound	Activity
Cn1cc(C(=O)Nc2ccc(F)cc2F)c(OCc2cccc(C(F)(F)F)c2)n1	inactive

Test system: Schoenoplectiella juncoides
Experiment: Pre-emergence herbicidal activity against Schoenoplectiella juncoides at 100 g a.i/ha measured after 14 days
Type: functional, organism-based
Conditions: not given

Compound	Activity
Cn1cc(C(=O)Nc2ccc(F)cc2F)c(OCc2cccc(C(F)(F)F)c2)n1	inactive

Test system: Lindernia procumbens
Experiment: Pre-emergence herbicidal activity against Lindernia procumbens at 500 g a.i/ha measured after 14 days
Type: functional, organism-based
Conditions: not given

Compound	Activity
Cn1cc(C(=O)Nc2ccc(F)cc2F)c(OCc2cccc(C(F)(F)F)c2)n1	Active

Test system: Cyperus difformis
Experiment: Pre-emergence herbicidal activity against Cyperus difformis at 500 g a.i/ha measured after 14 days
Type: functional, organism-based
Conditions: not given

Compound	Activity
Cn1cc(C(=O)Nc2ccc(F)cc2F)c(OCc2cccc(C(F)(F)F)c2)n1	Active

Test system: Lindernia procumbens
Experiment: Pre-emergence herbicidal activity against Lindernia procumbens at 100 g a.i/ha measured after 14 days
Type: functional, organism-based
Conditions: not given

Compound	Activity
Cn1cc(C(=O)Nc2ccc(F)cc2F)c(OCc2cccc(C(F)(F)F)c2)n1	Active

Test system: Eleocharis acicularis
Experiment: Pre-emergence herbicidal activity against Eleocharis acicularis at 100 g a.i/ha measured after 14 days
Type: functional, organism-based
Conditions: not given

Compound	Activity
Cn1cc(C(=O)Nc2ccc(F)cc2F)c(OCc2cccc(C(F)(F)F)c2)n1	Active

Test system: Eleocharis acicularis
Experiment: Pre-emergence herbicidal activity against Eleocharis acicularis assessed as bleaching of stem/leaf parts
Type: functional, organism-based
Conditions: not given

Compound	Activity
Cn1cc(C(=O)Nc2ccc(F)cc2F)c(OCc2cccc(C(F)(F)F)c2)n1	Active

Test system: Elatine triandra
Experiment: Pre-emergence herbicidal activity against Elatine triandra assessed as bleaching of stem/leaf parts
Type: functional, organism-based
Conditions: not given

Compound	Activity
Cn1cc(C(=O)Nc2ccc(F)cc2F)c(OCc2cccc(C(F)(F)F)c2)n1	Active

Test system: Oryza sativa
Experiment: Phytotoxicity against Oryza sativa cv. Koshihikari (rice) at 500 g a.i/ha measured after 14 days
Type: organism-based
Conditions: in vivo, 336 h

Compound	Activity
Cn1cc(C(=O)Nc2ccc(F)cc2F)c(OCc2cccc(C(F)(F)F)c2)n1	Toxic

Test system: Ammannia multiflora
Experiment: Pre-emergence herbicidal activity against Ammannia multiflora at 100 g a.i/ha measured after 14 days
Type: functional, organism-based
Conditions: not given

Compound	Activity
Cn1cc(C(=O)Nc2ccc(F)cc2F)c(OCc2cccc(C(F)(F)F)c2)n1	Active

Test system: Rotala indica
Experiment: Post-emergence herbicidal activity against Rotala indica assessed as bleaching of stem/leaf parts; further: test concentration or dose not given here
Type: functional, organism-based
Conditions: not given

Compound	Activity
Cn1cc(C(=O)Nc2ccc(F)cc2F)c(OCc2cccc(C(F)(F)F)c2)n1	Active

Test system: Schoenoplectiella juncoides
Experiment: Pre-emergence herbicidal activity against Schoenoplectiella juncoides at 500 g a.i/ha measured after 14 days
Type: functional, organism-based
Conditions: not given

Compound	Activity
Cn1cc(C(=O)Nc2ccc(F)cc2F)c(OCc2cccc(C(F)(F)F)c2)n1	Active

Test system: Echinochloa oryzicola
Experiment: Pre-emergence herbicidal activity against Echinochloa oryzicola assessed as bleaching of stem/leaf parts
Type: functional, organism-based
Conditions: not given

Compound	Activity
Cn1cc(C(=O)Nc2ccc(F)cc2F)c(OCc2cccc(C(F)(F)F)c2)n1	Active

Test system: Echinochloa oryzicola
Experiment: Pre-emergence herbicidal activity against Echinochloa oryzicola at 500 g a.i/ha measured after 14 days
Type: functional, organism-based
Conditions: not given

Compound	Activity
Cn1cc(C(=O)Nc2ccc(F)cc2F)c(OCc2cccc(C(F)(F)F)c2)n1	inactive

Test system: Schoenoplectiella juncoides
Experiment: Pre-emergence herbicidal activity against Schoenoplectiella juncoides assessed as bleaching of stem/leaf parts
Type: functional, organism-based
Conditions: not given

Compound	Activity
Cn1cc(C(=O)Nc2ccc(F)cc2F)c(OCc2cccc(C(F)(F)F)c2)n1	Active

Test system: Cyperus difformis
Experiment: Pre-emergence herbicidal activity against Cyperus difformis assessed as bleaching of stem/leaf parts
Type: functional, organism-based
Conditions: not given

Compound	Activity
Cn1cc(C(=O)Nc2ccc(F)cc2F)c(OCc2cccc(C(F)(F)F)c2)n1	Active

Test system: Lindernia procumbens
Experiment: Pre-emergence herbicidal activity against Lindernia procumbens assessed as bleaching of stem/leaf parts
Type: functional, organism-based
Conditions: not given

Compound	Activity
Cn1cc(C(=O)Nc2ccc(F)cc2F)c(OCc2cccc(C(F)(F)F)c2)n1	Active

Test system: Elatine triandra
Experiment: Pre-emergence herbicidal activity against Elatine triandra at 500 g a.i/ha measured after 14 days
Type: functional, organism-based
Conditions: not given

Compound	Activity
Cn1cc(C(=O)Nc2ccc(F)cc2F)c(OCc2cccc(C(F)(F)F)c2)n1	Active

Test system: Elatine triandra
Experiment: Pre-emergence herbicidal activity against Elatine triandra at 100 g a.i/ha measured after 14 days
Type: functional, organism-based
Conditions: not given

Compound	Activity
Cn1cc(C(=O)Nc2ccc(F)cc2F)c(OCc2cccc(C(F)(F)F)c2)n1	Active

Test system: Eleocharis acicularis
Experiment: Pre-emergence herbicidal activity against Eleocharis acicularis at 500 g a.i/ha measured after 14 days
Type: functional, organism-based
Conditions: not given

Compound	Activity
Cn1cc(C(=O)Nc2ccc(F)cc2F)c(OCc2cccc(C(F)(F)F)c2)n1	Active

Test system: Cyperus difformis
Experiment: Post-emergence herbicidal activity against Cyperus difformis assessed as bleaching of stem/leaf parts; further: test concentration or dose not given here
Type: functional, organism-based
Conditions: not given

Compound	Activity
Cn1cc(C(=O)Nc2ccc(F)cc2F)c(OCc2cccc(C(F)(F)F)c2)n1	Active

Test system: Pontederia vaginalis
Experiment: Pre-emergence herbicidal activity against Monochoria vaginalis assessed as bleaching of stem/leaf parts
Type: functional, organism-based
Conditions: not given

Compound	Activity
Cn1cc(C(=O)Nc2ccc(F)cc2F)c(OCc2cccc(C(F)(F)F)c2)n1	Active
